{"source": "paper PMC5441580", "about": "“GPR40 partial agonist MK-2305 lower fasting glucose in the Goto Kakizaki rat via suppression of endogenous glucose production” (PLoS ONE, 2017)", "key": {"[1]": {"tested_on": "pancreatic islets of Langerhans from GPR40−/− mice", "assay": "glucose stimulated insulin secretion (GSIS), isolated GPR40 KO islets", "type": "cell-based, mouse", "details": "10 uM compound, 60 min, individual wells", "procedure": "Pancreatic islets of Langerhans were isolated from wild-type and GPR40−/− mice (littermates) by collagenase digestion and discontinuous Ficoll gradient separation. […] Insulin secretion was determined by a 1 hr static incubation in Krebs-Ringer bicarbonate (KRB) buffer in a 96-well format as previously described. Briefly, islets were first preincubated in KRB medium with 2 mmol/l glucose for 30 min and were then transferred to a 96-well plate (three islets/well) and incubated with 200 μl of the KRB medium with 2 or 15 mmol/l glucose in the presence or absence of testing compounds for 60 min. The buffer was removed from the wells at the end of the incubation and assayed for insulin levels using the Ultrasensitive Rat Insulin ELISA kit (ALPCO, Salem, NH). All insulin secretion data were normalized by total islet numbers (ex: three islets/well), so the unit is secreted insulin (ng/ml) per islet."}, "[2]": {"tested_on": "perfused db/db mouse livers", "assay": "isolated perfused liver study, 13C NMR, [2-13C] pyruvate", "procedure": "To evaluate whether GPR40 partial agonist treatment produced a direct effect on hepatic glucose production, we performed isolated perfused liver studies with ^13C NMR spectroscopy in which GPR40 agonists were dosed directly to the liver ex vivo. Mouse livers were chosen instead of rat livers due to size restrictions of the perfused liver apparatus. […] A detailed description of the perfused liver technique can be found elsewhere. Briefly, db/db mice were anesthetized (Nembutal IP, 100 mg/kg), the portal vein was cannulated and tied off, and the liver was excised and perfused with a pre-oxygenated Krebs-bicarbonate buffered solution. The liver was then placed into a 20 mm NMR tube and the gluconeogenic substrate [2-^13C] pyruvate (10 mM) was added to the perfusate plus either MK-2305 (10 μM) or vehicle (0.1% DMSO). […] These NMR signals were then converted to absolute units (μmoles) by comparison to ^13C NMR spectra of standard solutions acquired under identical conditions. Additional correction factors were included for ^13C-glycogen and ^13C-glucose to account for the fact that position 2 in pyruvate can end up at position 1, 2, 5, or 6 in glucose/glycogen due to the fumarase and triose phosphate isomerase reactions. The slope of each signal versus time was then used to calculate the following fluxes: glucose production, glycogen synthesis, and lactate production."}, "GK rats [3]": {"tested_on": "GK rats", "assay": "endogenous glucose production in vivo, 2H/13C dual tracer, acute treatment, GK rats", "design": "species or system rat", "procedure": "(§1) To evaluate whether MK-2305 treatment produced an effect on EGP in vivo, a ^2H/^13C dual tracer approach was used to calculate EGP and its contributing sources. On the day of the study, GK rats were bled via tail snip, and blood glucose was measured via glucometer. Ambient glucose was measured at 8 A.M. and used to sort animals into treatment groups (n = 8 per group). 0.9% NaCl salinated D2O (Sigma-Aldrich, St. Louis, MO) was administered to all animals via IP injection at dose volume of 20 ml/kg. Animals were then placed in clean cages and food was removed. After a 5 hour fast, blood glucose was measured and animals were dosed PO with MK-2305 at 10 mg/kg (5 ml/kg) or vehicle (0.5% methylcellulose) immediately followed by 50 mg/kg [U-^13C] glucose (Sigma-Aldrich) IP at 5 ml/kg. Blood was collected via tail snip at time points from 60–150 min post treatment to measure blood glucose as well as endogenous (^12C-glucose) and exogenous (^13C-glucose) via GCMS. Following the last tail blood collection, rats were anesthetized with isoflurane and cardiac blood was collected into K2EDTA tubes (Becton, Dickinson and Co., Franklin Lakes, NJ).\n(§2) The serially collected blood samples were analyzed for ^13C-glucose enrichment using GC-MS analysis. The % ^13C glucose enrichments were then combined with the total glucose readings to calculate the concentration of ^13C-glucose, and these values were modeled with a two-compartment model of whole body glucose metabolism to calculate the average EGP for the period from 0–150 minutes.\n(§3) Terminal blood samples were analyzed for relative ^2H enrichment in plasma glucose using the monoacetone glucose method. Briefly, samples were extracted with 70% perchloric acid and centrifuged at 25,000 rcf for 10 min at 4°C. The supernatant was collected and the pH was adjusted to 6–8 using KOH. The samples were then lyophilized overnight. To convert plasma glucose to monoacetone glucose (MAG), acetone and concentrated sulfuric acid were added to the lyophilized samples and stirred for 4 hours at room temperature. Water was then added and the pH adjusted to 2.0 with 3M Na2CO3. Samples were stirred moderately for 18 hours at room temperature, the pH was adjusted to 7 with 3M Na2CO3, and the samples were completely dried by speed vacuum concentration. The resulting MAG samples were then extracted in hot ethyl acetate, dried overnight under a stream of N2 gas, purified using Discovery DSC-18 SPE columns (6 ml, 1 g bed weight), and freeze dried. Purified MAG samples were solubilized in 180 μl 90% acetonitrile for ^2H NMR analysis which was performed using the lock channel of a 950 MHz Bruker NMR spectrometer (David H Murdock Research Institute, Kannapolis, NC). Acquisition parameters were as follows: 90° pulse, D1 = 1 s, ^1H broadband decoupling, NS = 3600 averages, acquisition time ~ 1 hr. The ^2H NMR spectra of the MAG samples were then analyzed using in–house developed Matlab (The Mathworks Inc, Natick, MA) to model the NMR peaks with a Lorentzian line shape, and the results were used to calculate integrals for each of the seven NMR resonances in the MAG spectrum. Peaks 2, 5, and 6s were then used to calculate the relative sources of EGP (i.e. gluconeogenesis from TCA cycle substrates, gluconeogenesis from triose phosphates, and glycogenolysis) and these values were combined with the total EGP measurement to calculate absolute fluxes of glucose production."}, "GK rats [4]": {"tested_on": "GK rats", "assay": "endogenous glucose production in vivo, 2H/13C dual tracer, chronic treatment, GK rats", "design": "species or system rat", "details": "10 mg/kg, individual animals", "procedure": "as §1, §2\nas §3, with “Purified MAG samples were solubilized in 180 μl 90% acetonitrile for ^2H NMR analysis which was performed using the lock channel of a 950 MHz Bruker NMR spectrometer (David H Murdock Research Institute, Kannapolis, NC). Acquisition parameters were as follows: 90° pulse, D1 = 1 s, ^1H broadband decoupling, NS = 3600 averages, acquisition time ~ 1 hr.” left out, “Peaks 2, 5, and 6s were then used to calculate the relative sources of EGP (i.e. gluconeogenesis from TCA cycle substrates, gluconeogenesis from triose phosphates, and glycogenolysis) and these values were combined with the total EGP measurement to calculate absolute fluxes of glucose production.” left out"}, "GK rats [5]": {"tested_on": "GK rats", "assay": "GK rat chronic efficacy, compound in feed for 20 days", "type": "in vivo", "details": "Day 7, ~6 hrs after food removal; 10mpk; chronic study; individual animals; 10 mg/kg"}, "[6]": {"details": "perfused db/db mouse livers, 10 mg/kg, title: 10 M, individual livers"}, "[7]": {"details": "acute treatment, 10 mg/kg, individual animals"}}, "note": "Values joined by “and” are separate entries in the source; they are usually repeats but may differ in a detail not shown here. Equal values may be shown once."}
{"smiles": "O=C1NC(=O)C(C2CCOc3cc(Oc4ccc(C(F)(F)F)cc4Cl)ccc32)S1", "note": "(stereo not shown) [MK-2305]", "values": [{"measurement": "secreted insulin per islet", "setting": "[1]; 2mM glucose", "result": "0.3958 ng/ml per islet and 0.3056 ng/ml per islet and 0.5799 ng/ml per islet and 0.6404 ng/ml per islet and 0.5029 ng/ml per islet and 1.032 ng/ml per islet and 0.612 ng/ml per islet and 0.7615 ng/ml per islet"}, {"measurement": "secreted insulin per islet", "setting": "[1]; 15 mM Glucose", "result": "2.615 ng/ml per islet and 3.66 ng/ml per islet and 2.83 ng/ml per islet and 4.29 ng/ml per islet and 3.64 ng/ml per islet and 2.75 ng/ml per islet and 4.57 ng/ml per islet and 4.28 ng/ml per islet"}, {"measurement": "effect on conversion of [2-13C] pyruvate to 13C-glucose, 13C-glycogen, or 13C-lactate", "setting": "[2]; 10 μM, perfused db/db mouse liver", "result": "no effects"}, {"measurement": "Flux, conversion of [2-13C] pyruvate to 13C-glycogen", "setting": "[2]; [6]", "result": "0.1121 umoles pyr /g liver*min and 0.1693 umoles pyr /g liver*min and 0.0485 umoles pyr /g liver*min and 0.07554 umoles pyr /g liver*min"}, {"measurement": "Flux, conversion of [2-13C] pyruvate to 13C-lactate", "setting": "[2]; [6]", "result": "1.604 umoles pyr /g liver*min and 1.499 umoles pyr /g liver*min and 1.317 umoles pyr /g liver*min and 0.5832 umoles pyr /g liver*min"}, {"measurement": "Flux, conversion of [2-13C] pyruvate to 13C-glucose", "setting": "[2]; perfused db/db mouse livers, MK-2305 10 μM in perfusate, individual livers", "result": "0.9558 umoles pyr /g liver*min and 1.314 umoles pyr /g liver*min and 1.287 umoles pyr /g liver*min and 0.8408 umoles pyr /g liver*min"}, {"measurement": "Glucose Production, GNG Glycerol", "setting": "GK rats [3]; [7]", "result": "3.608 µmol/kg/min and 6.69 µmol/kg/min and 9.73 µmol/kg/min and 6.819 µmol/kg/min and 7.18 µmol/kg/min and 7.314 µmol/kg/min"}, {"measurement": "Glucose Production, GNG TCA", "setting": "GK rats [3]; [7]", "result": "22.6827 µmol/kg/min and 24.6101 µmol/kg/min and 42.0826 µmol/kg/min and 20.0832 µmol/kg/min and 26.1824 µmol/kg/min and 20.2011 µmol/kg/min"}, {"measurement": "Glucose Production, GNG Total", "setting": "GK rats [3]; [7]", "result": "26.2902 µmol/kg/min and 31.3005 µmol/kg/min and 51.8129 µmol/kg/min and 26.902 µmol/kg/min and 33.3626 µmol/kg/min and 27.5151 µmol/kg/min"}, {"measurement": "Glucose Production, Glycogenolysis", "setting": "GK rats [3]; [7]", "result": "12.8051 µmol/kg/min and 15.6084 µmol/kg/min and 16.1238 µmol/kg/min and 13.6282 µmol/kg/min and 9.977 µmol/kg/min and 16.0296 µmol/kg/min"}, {"measurement": "effect on EGP derived from glycogenolysis", "setting": "GK rats [3]; acute, 10 mg/kg PO", "result": "did not acutely affect"}, {"measurement": "EGP from gluconeogenic substrates entering as triose phosphates", "setting": "GK rats [3]; acute, 10 mg/kg PO, mean ± SEM, vehicle 8.82 ± 0.81, p < 0.05", "result": "6.90 ± 0.80", "unit": "µmol/kg/min"}, {"measurement": "EGP from gluconeogenic substrates entering at the TCA cycle", "setting": "GK rats [3]; acute, 10 mg/kg PO, mean ± SEM, vehicle 43.2 ± 4.17, p < 0.01", "result": "26.0 ± 3.36", "unit": "µmol/kg/min"}, {"measurement": "total EGP", "setting": "GK rats [3]; acute, 10 mg/kg PO, mean ± SEM, vehicle 52.0 ± 4.82, p < 0.05", "result": "32.9 ± 3.95", "unit": "µmol/kg/min"}, {"measurement": "Glucose Production, GNG Glycerol", "setting": "GK rats [4]", "result": "9.192 µmol/kg/min and 6.083 µmol/kg/min and 7.998 µmol/kg/min and 7.217 µmol/kg/min and 7.842 µmol/kg/min and 8.659 µmol/kg/min and 3.467 µmol/kg/min and 8.678 µmol/kg/min"}, {"measurement": "Glucose Production, GNG TCA", "setting": "GK rats [4]", "result": "36.7882 µmol/kg/min and 38.5819 µmol/kg/min and 33.1225 µmol/kg/min and 31.7162 µmol/kg/min and 37.3311 µmol/kg/min and 31.203 µmol/kg/min and 37.9138 µmol/kg/min and 30.2175 µmol/kg/min"}, {"measurement": "Glucose Production, GNG Total", "setting": "GK rats [4]", "result": "45.9798 µmol/kg/min and 44.6651 µmol/kg/min and 41.1202 µmol/kg/min and 38.9333 µmol/kg/min and 45.1729 µmol/kg/min and 39.8625 µmol/kg/min and 41.3808 µmol/kg/min and 38.8959 µmol/kg/min"}, {"measurement": "Glucose Production, Glycogenolysis", "setting": "GK rats [4]", "result": "21.2266 µmol/kg/min and 17.3215 µmol/kg/min and 19.9927 µmol/kg/min and 20.4645 µmol/kg/min and 22.2628 µmol/kg/min and 19.9186 µmol/kg/min and 23.4568 µmol/kg/min and 19.0453 µmol/kg/min"}, {"measurement": "Fasted blood glucose", "setting": "GK rats [5]", "result": "134 mg/dl (2×) and 126 mg/dl and 92 mg/dl and 108 mg/dl and 125 mg/dl and 107 mg/dl (2×) and 150 mg/dl"}]}
